Assay results from patent US20240174673A1, “Spirocycle Containing Pyridine Compounds” (Protego Biopharma, Inc., priority 2022, published 2024).

Test system: Recombinant amyloidogenic full length light chain protein WIL-FL T46L
Assay: Differential Scanning Fluorimetry (thermal shift) assay
Format: binding
Conditions: WIL-FL T46L protein and compound incubated at RT for 30 min before dye; compared to vehicle
Description: Differential Scanning Fluorimetry Assay
The stabilization effects the compounds have on the immunoglobulin light chain protein was quantitively measured using a thermal shift assay. Recombinant amyloidogenic full length light chain protein WIL-FL T46L was produced in E. coli, purified, and used in the assay. The Thermal Shift Protein Stability Kit from Biotium was used and the assay was done in 96-well Plates following the manufacturer's instructions. The protein and compounds were incubated at RT for 30 min before adding the dye and subjected to the thermal shift assay. The thermal stability (Tm) of each sample was then determined using standard curve fitting methods and compared to vehicle. Data are expressed as temperature shift: [Tm]compound−[Tm]vehicle.
The compounds provided herein induce shifts in the ranges below: • 0-0.5° C.=* • >0.5-1° C.=** • >1-1.5° C.=*** • >1.5-2.5° C.=**** • >2.5° C.=*****

SMILES	DSF temperature shift: [Tm]compound−[Tm]vehicle
Cc1cc(N2CC[C@](C)(c3ccccc3)C2)cnc1C(=O)NCCN1CC2(CCN(c3nccn4ccnc34)CC2)NC1=O (stereo in doubt) [Compound 5, N-(2-(8-(imidazo[1,2-a]pyrazin-8-yl)-2-oxo-1,3,8-triazaspiro[4.5]decan-3-yl)ethyl)-3-methyl-5-(3-methyl-3-phenylpyrrolidin-1-yl)picolinamide]	***** (>2.5° C.=*****)
C[C@H](COc1cnc(C(=O)NCCN2CC3(CCN(c4nccn5ccnc45)CC3)NC2=O)c(Cl)c1)c1ccccc1 (stereo in doubt) [Compound 13, 3-chloro-N-(2-(8-(imidazo[1,2-a]pyrazin-8-yl)-2-oxo-1,3,8-triazaspiro[4.5]decan-3-yl)ethyl)-5-(2-phenylpropoxy)picolinamide]	***** (>2.5° C.=*****)
Cc1cc(N2CCC(C)(c3ccccc3)C2)cnc1C(=O)NCCN1CC2(CCNCC2)NC1=O (stereo not shown) [Compound 2, 3-methyl-5-(3-methyl-3-phenylpyrrolidin-1-yl)-N-(2-(2-oxo-1,3,8-triazaspiro[4.5]decan-3-yl)ethyl)picolinamide]	**** (>1.5-2.5° C.=****)
Cc1cc(N2CC[C@](C)(c3ccccc3)C2)cnc1C(=O)NCCN1CC2(CCN(c3nccn4cncc34)CC2)NC1=O [Compound 3]	***** (>2.5° C.=*****)
Cc1cc(N2CC[C@](C)(c3ccccc3)C2)cnc1C(=O)NCCN1CC2(CCN(c3nccn4cnnc34)CC2)NC1=O [Compound 4]	***** (>2.5° C.=*****)
Cc1cc(N2CC[C@@](C)(c3ccccc3)C2)cnc1C(=O)NCCN1CC2(CCN(c3nccn4ccnc34)CC2)NC1=O [Compound 6]	**** (>1.5-2.5° C.=****)
C[C@]1(c2ccccc2)CCN(c2cnc(C(=O)NCCN3CC4(CCN(c5nccn6ccnc56)CC4)NC3=O)c(Cl)c2)C1 [Compound 7, 3-chloro-N-(2-(8-(imidazo[1,2-a]pyrazin-8-yl)-2-oxo-1,3,8-triazaspiro[4.5]decan-3-yl)ethyl)-5-(3-methyl-3-phenylpyrrolidin-1-yl)picolinamide]	***** (>2.5° C.=*****)
C[C@]1(c2ccccc2)CCN(c2cnc(C(=O)NCCN3CC4(CCN(c5nccn6ccnc56)CC4)NC3=O)c(C(F)(F)F)c2)C1 [Compound 8]	**** (>1.5-2.5° C.=****)
C[C@]1(c2ccccc2)CCN(c2cnc(C(=O)NCCN3CC4(CCN(c5nccn6cnnc56)CC4)NC3=O)c(Cl)c2)C1 [Compound 9]	***** (>2.5° C.=*****)
CC[C@]1(c2ccccc2)CCN(c2cnc(C(=O)NCCN3CC4(CCN(c5nccn6ccnc56)CC4)NC3=O)c(Cl)c2)C1 [Compound 10]	***** (>2.5° C.=*****)
CC[C@]1(c2ccccc2)CCN(c2cnc(C(=O)NCCN3CC4(CCN(c5nccn6cnnc56)CC4)NC3=O)c(Cl)c2)C1 [Compound 11]	***** (>2.5° C.=*****)
C[C@H](COc1cnc(C(=O)NCCN2CC3(CCNCC3)NC2=O)c(Cl)c1)c1ccccc1 [Compound 12]	*** (>1-1.5° C.=***)
Cc1cc(N2CCC(C)(c3ccccc3)C2)cnc1C(=O)NCCN1CC2(CCN(c3nccn4ccnc34)CC2)NC1=O (stereo not shown) [Compound 14]	***** (>2.5° C.=*****)
CCOC(=O)c1ccc(N2CCC3(CC2)CN(CCNC(=O)c2ncc(OC[C@@H](C)c4ccccc4)cc2Cl)C(=O)N3)cn1 [Compound 15]	*** (>1-1.5° C.=***)
CC[C@]1(c2ccccc2)CCN(c2cnc(C(=O)NCCN3CC4(CCN(c5ccnc(C(=O)NC)c5)CC4)NC3=O)c(Cl)c2)C1 [Compound 16]	* (0-0.5° C.=*)
CC[C@]1(c2ccccc2)CCN(c2cnc(C(=O)NCCN3CC4(CCN(c5cncnc5)CC4)NC3=O)c(Cl)c2)C1 [Compound 17]	** (>0.5-1° C.=**)
COC(=O)c1ncc(N2CCC3(CC2)CN(CCNC(=O)c2ncc(OC[C@@H](C)c4ccccc4)cc2Cl)C(=O)N3)cc1F [Compound 18]	** (>0.5-1° C.=**)
COC(=O)c1ccc(N2CCC3(CC2)CN(CCNC(=O)c2ncc(OC[C@@H](C)c4ccccc4)cc2Cl)C(=O)N3)nn1 [Compound 19]	**** (>1.5-2.5° C.=****)
C[C@H](COc1cnc(C(=O)NCCN2CC3(CCN(c4cnc(C(=O)O)c(F)c4)CC3)NC2=O)c(Cl)c1)c1ccccc1 [Compound 20]	** (>0.5-1° C.=**)
C[C@H](COc1cnc(C(=O)NCCN2CC3(CCN(c4ccc(C(=O)O)nn4)CC3)NC2=O)c(Cl)c1)c1ccccc1 [Compound 21]	** (>0.5-1° C.=**)
C[C@H](COc1cnc(C(=O)NCCN2CC3(CCN(c4ccc(C(=O)O)nc4)CC3)NC2=O)c(Cl)c1)c1ccccc1 [Compound 22]	*** (>1-1.5° C.=***)
C[C@H](COc1cnc(C(=O)NCCN2CC3(CCN(c4nccn5cncc45)CC3)NC2=O)c(Cl)c1)c1ccccc1 [Compound 23]	***** (>2.5° C.=*****)
C[C@H](COc1cnc(C(=O)NCCN2CC3(CCN(c4cnccn4)CC3)NC2=O)c(Cl)c1)c1ccccc1 [Compound 24]	**** (>1.5-2.5° C.=****)
CC(=O)N1CCC2(CC1)CN(CCNC(=O)c1ncc(N3CC[C@](C)(c4ccccc4)C3)cc1C)C(=O)N2 [Compound 25]	**** (>1.5-2.5° C.=****)
Cc1cc(N2CCC(C)(c3ccccc3)C2)cnc1CCN1C(=O)NC2(CCN(c3ncccn3)CC2)C1=O (stereo not shown) [Compound 26]	* (0-0.5° C.=*)
